The source of these data is patent publication US20260042764A1, “COMPOSITIONS AND METHODS FOR INHIBITION OF KRAS” (TheRas, Inc., priority 2022, published 2026).

The structures appear in SMILES notation.

For test [1], the target named is T1, Avi-KRAS WT (1-169) GppNHp/RAF1 RBD-3xFLAG (52-151) (Homo sapiens, UniProt P01116).
T1 construct: Avi-KRAS WT (1-169)
Put plainly: Raf1-KRAS WT-GppNHP disruption HTRF assay (Biological Example 1). Type of test: binding. In outline:
(§1)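 Read-out is HTRF signal of the KRAS–RAF1 RBD complex, reported as percentage of activity relative to DMSO (100%). Protein mix and detection reagents each incubated 1 h at room temperature with 700 rpm shaking. Buffer: 50 mM Tris pH 7.5, 100 mM NaCl, 5 mM MgCl2, 0.1% BSA, 0.01% Tween, 10% DMSO.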
A general note: In TR-FRET formats the signal depends on donor and acceptor labels being close together.

In test [2] the target is T2, Avi-KRAS G12D (1-169) GppNHp/RAF1 RBD-3xFLAG (52-151) (Homo sapiens, UniProt P01116, G12D).
T2 construct: Avi-KRAS G12D (1-169)
The test is described as follows: Raf1-KRAS G12D-GppNHP disruption HTRF assay (Biological Example 1). Type of test: binding. In outline:
as §1

The subject of test [3] is GP2d cells (KRAS G12D). The test is described as follows: Cell-based pERK HTRF assay in GP2d cell (Biological Example 2). As to conditions: GP2d, GP2d (KRAS G12D) cells, pERK HTRF. In short, it runs like this: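 HTRF read-out of pERK (excitation 320 nm, emission 615 nm) after lysates sat 4–24 h at room temperature with Eu cryptate and d2 antibodies.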
Test [4] relates to SW620 cells (KRAS G12V). The test is described as follows: Cell-based pERK HTRF assay in SW620 cell (Biological Example 4). As to conditions: Homo sapiens, SW-620, SW620 (KRAS G12V) cells, pERK HTRF. In outline:
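SW620 seeded in RPMI/10% FBS, next day dosed 4 h (top 1 μM, half-log, 9 pts, 0.25% DMSO). Lysed, pERK by d2/Eu cryptate HTRF, 4–24 h RT, 615 nm read.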

In test [5] the target is T3, Avi-KRAS G12R (1-169) GppNHp/RAF1 RBD-3xFLAG (52-151) (Homo sapiens, UniProt P01116, G12R).
T3 construct: Avi-KRAS G12R (1-169)
Put plainly: Raf1-KRAS G12R-GppNHP disruption HTRF assay (Biological Example 1). In kind it is binding. In short, it runs like this:
as §1

Test [6] deals with T4, Avi-KRAS G12V (1-169) GppNHp/RAF1 RBD-3xFLAG (52-151) (Homo sapiens, UniProt P01116, G12V).
T4 construct: Avi-KRAS G12V (1-169)
The test is described as follows: Raf1-KRAS G12V-GppNHP disruption HTRF assay (Biological Example 1). In kind it is binding. In short, it runs like this:
as §1

Where [7] appears, read: KRAS WT, GppNHp-loaded, class symbols.
Where [8] appears, read: KRAS G12D, GppNHp-loaded, class symbols.
Where [9] appears, read: KRAS G12R, GppNHp-loaded, class symbols.
[10] abbreviates: KRAS G12V, GppNHp-loaded, class symbols.

T4 sequence (P01116 1-169 isoform P01116-2 G12V): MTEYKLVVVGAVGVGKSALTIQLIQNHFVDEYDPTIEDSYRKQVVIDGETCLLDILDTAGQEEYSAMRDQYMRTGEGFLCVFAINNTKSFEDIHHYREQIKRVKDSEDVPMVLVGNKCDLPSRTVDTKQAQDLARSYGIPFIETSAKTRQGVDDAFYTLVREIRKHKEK
T3 sequence (P01116 1-169 isoform P01116-2 G12R): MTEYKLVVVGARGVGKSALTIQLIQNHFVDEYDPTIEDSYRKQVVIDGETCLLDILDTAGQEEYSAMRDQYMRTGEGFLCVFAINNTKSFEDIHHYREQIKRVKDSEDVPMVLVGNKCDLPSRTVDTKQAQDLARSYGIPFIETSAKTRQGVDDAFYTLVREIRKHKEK
T2 sequence (P01116 1-169 isoform P01116-2 G12D): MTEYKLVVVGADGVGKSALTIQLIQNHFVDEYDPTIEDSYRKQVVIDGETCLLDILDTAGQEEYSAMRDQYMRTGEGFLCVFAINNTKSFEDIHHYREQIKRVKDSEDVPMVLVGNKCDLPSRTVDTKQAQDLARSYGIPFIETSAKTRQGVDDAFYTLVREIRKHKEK
T1 sequence (P01116 1-169 isoform P01116-2): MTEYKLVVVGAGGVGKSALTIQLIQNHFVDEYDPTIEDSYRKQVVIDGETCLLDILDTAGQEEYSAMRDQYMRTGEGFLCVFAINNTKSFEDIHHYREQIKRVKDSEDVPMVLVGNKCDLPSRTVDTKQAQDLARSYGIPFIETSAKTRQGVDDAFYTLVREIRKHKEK

As for `CCN(c1nc(OC[C@@]23CCCN2C[C@H](F)C3)nc2c(F)c(-c3ccc(F)c4sc(N)c(C#N)c34)c(C(F)(F)F)cc12)[C@H]1CCN(C(=O)N(C)C)[C@H]1C` (atropisomer, axis not shown) [Compound 798], the concentration for half-maximal inhibition (IC50) in test [1] (setting [7]) lay within 1 to 10 µM; in test [2] (setting [8]) it was 0.1 to 1 µM; in test [3] (class symbols), 0.1 to 1 µM; in test [4] (class symbols), 0.1 to 1 µM; in test [5] (setting [9]) it was 1 to 10 µM; in test [6] (setting [10]) it was 1 to 10 µM.
Consider `C[C@@H]1[C@H](N(C)c2nc(OC[C@@]34CCCN3C[C@H](F)C4)nc3c(F)c(-c4ccc(F)c5sc(N)c(C#N)c45)c(C(F)(F)F)cc23)CCN1C(=O)C(C)(F)F` [Compound 459], for which the half-maximal inhibitory concentration (IC50) in test [1] (KRAS WT-GppNHp/RAF1 RBD HTRF) is 0.1 to 1 µM; in test [2] (KRAS G12D-GppNHp/RAF1 RBD HTRF), 0.1 to 1 µM; in test [3], < 0.1 µM; in test [4], < 0.1 µM; in test [5] (KRAS G12R-GppNHp/RAF1 RBD HTRF), 0.1 to 1 µM; in test [6] (KRAS G12V-GppNHp/RAF1 RBD HTRF), 0.1 to 1 µM.
Regarding `CN1C[C@H](N(C)c2nc(OC[C@@]34CCCN3C[C@H](F)C4)nc3c(F)c(-c4ccc(F)c5sc(N)c(C#N)c45)c(C(F)(F)F)cc23)CC1=O` [Compound 285], the IC50 in test [1] (KRAS WT-GppNHp/RAF1 RBD HTRF) was 0.1 to 1 µM; in test [2] (KRAS G12D-GppNHp/RAF1 RBD HTRF), 0.1 to 1 µM; in test [3], < 0.1 µM; in test [4] it was < 0.1 µM; in test [5] (KRAS G12R-GppNHp/RAF1 RBD HTRF), 0.1 to 1 µM; in test [6] (KRAS G12V-GppNHp/RAF1 RBD HTRF), 0.1 to 1 µM.
In the case of `CN(c1nc(OC[C@@]23CCCN2C[C@H](F)C3)nc2c(F)c(-c3ccc(F)c4sc(N)c(C#N)c34)c(C(F)(F)F)cc12)[C@@H]1CNC(=O)C1` [Compound 340], the IC50 is 0.1 to 1 µM in test [1] (KRAS WT-GppNHp/RAF1 RBD HTRF); 0.1 to 1 µM in test [2] (KRAS G12D-GppNHp/RAF1 RBD HTRF); < 0.1 µM in test [3]; 0.1 to 1 µM in test [4]; 0.1 to 1 µM in test [5] (KRAS G12R-GppNHp/RAF1 RBD HTRF); 0.1 to 1 µM in test [6] (KRAS G12V-GppNHp/RAF1 RBD HTRF).
`N#Cc1c(N)sc2c(F)ccc(-c3c(C(F)(F)F)cc4c(N5CCC[C@H](O)C5)nc(OC[C@@]56CCCN5C[C@H](F)C6)nc4c3F)c12` [Compound 236]: the IC50 was 0.1 to 1 µM in test [1] (KRAS WT, GppNHp-loaded, Table 11); 0.1 to 1 µM in test [2] (KRAS G12D, GppNHp-loaded, Table 11); < 0.1 µM in test [3]; < 0.1 µM in test [4]; 0.1 to 1 µM in test [5] (KRAS G12R, GppNHp-loaded, Table 11); 0.1 to 1 µM in test [6] (KRAS G12V, GppNHp-loaded, Table 11).
`CN(C)C(=O)c1nn2c(c1C1CC1)CN(c1nc(OCC34CCCN3CC(F)C4)nc3c(F)c(-c4ccc(F)c5sc(N)c(C#N)c45)c(C(F)(F)F)cc13)CC2` (stereo not drawn) [Compound 738]: the IC50 was 0.1 to 1 µM in test [1] (setting [7]); 0.1 to 1 µM in test [2] (setting [8]); < 0.1 µM in test [3] (class symbols); < 0.1 µM in test [4] (class symbols); 0.1 to 1 µM in test [5] (setting [9]); 0.1 to 1 µM in test [6] (setting [10]).
For `CCN(c1nc(OC[C@@]23CCCN2C[C@H](F)C3)nc2c(F)c(-c3ccc(F)c4sc(N)c(C#N)c34)c(C(F)(F)F)cc12)[C@H]1CCN(C(=O)c2cc(C)no2)C1` (atropisomer, axis not shown) [Compound 771], the IC50 in test [1] (setting [7]), in test [2] (setting [8]), in test [3] (class symbols), in test [4] (class symbols), in test [5] (setting [9]) and in test [6] (setting [10]) was < 0.1 µM throughout.
On to `CCN(c1nc(OC[C@@]23CCCN2C[C@H](F)C3)nc2c(F)c(-c3ccc(F)c4sc(N)c(C#N)c34)c(C(F)(F)F)cc12)[C@H]1CCN(C(=O)[C@H]2C[C@H]2F)C1` (atropisomer, axis not shown) [Compound 750], for which the IC50 in test [1] (setting [7]), in test [2] (setting [8]), in test [3] (class symbols), in test [4] (class symbols), in test [5] (setting [9]) and in test [6] (setting [10]) was < 0.1 µM in each case.
As to `N#Cc1c(N)sc2c(F)ccc(-c3c(C(F)(F)F)cc4c(N5CC6CC(C5)O6)nc(OC[C@@]56CCCN5C[C@]5(CC5(F)F)C6)nc4c3F)c12` [Compound 365], the IC50 is 0.1 to 1 µM in test [1] (KRAS WT-GppNHp/RAF1 RBD HTRF); 0.1 to 1 µM in test [2] (KRAS G12D-GppNHp/RAF1 RBD HTRF); < 0.1 µM in test [3]; < 0.1 µM in test [4]; 0.1 to 1 µM in test [5] (KRAS G12R-GppNHp/RAF1 RBD HTRF); 0.1 to 1 µM in test [6] (KRAS G12V-GppNHp/RAF1 RBD HTRF).

In general, IC50 refers to the concentration needed to halve the response being measured. High values mean weaker potency in that assay, low ones greater potency in that assay.
